Experimental data from patent US9012651B2, “TRPV3 modulators” (AbbVie Inc., priority 2011, dated 2015).

Target: human TRPV3 receptors (Homo sapiens (Human), UniProt Q8NET8)
Assay: Calcium flux assay (FLIPR TETRA), inhibition of the 2-APB response
Assay type: cell-based
Settings: recombinant HEK293 cells stably expressing TRPV3, Calcium-4 dye, 2-APB at its EC80
Procedure, shortened: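 HEK293 cells stably expressing human and mouse TRPV3, plated the day before and dye-loaded 90-120 min in the dark, read on FLIPR Tetra. Peak fluorescence increase over baseline was expressed as percent of the maximal 2-APB response without compound.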

Sequence of human TRPV3 receptors (Q8NET8 whole entry): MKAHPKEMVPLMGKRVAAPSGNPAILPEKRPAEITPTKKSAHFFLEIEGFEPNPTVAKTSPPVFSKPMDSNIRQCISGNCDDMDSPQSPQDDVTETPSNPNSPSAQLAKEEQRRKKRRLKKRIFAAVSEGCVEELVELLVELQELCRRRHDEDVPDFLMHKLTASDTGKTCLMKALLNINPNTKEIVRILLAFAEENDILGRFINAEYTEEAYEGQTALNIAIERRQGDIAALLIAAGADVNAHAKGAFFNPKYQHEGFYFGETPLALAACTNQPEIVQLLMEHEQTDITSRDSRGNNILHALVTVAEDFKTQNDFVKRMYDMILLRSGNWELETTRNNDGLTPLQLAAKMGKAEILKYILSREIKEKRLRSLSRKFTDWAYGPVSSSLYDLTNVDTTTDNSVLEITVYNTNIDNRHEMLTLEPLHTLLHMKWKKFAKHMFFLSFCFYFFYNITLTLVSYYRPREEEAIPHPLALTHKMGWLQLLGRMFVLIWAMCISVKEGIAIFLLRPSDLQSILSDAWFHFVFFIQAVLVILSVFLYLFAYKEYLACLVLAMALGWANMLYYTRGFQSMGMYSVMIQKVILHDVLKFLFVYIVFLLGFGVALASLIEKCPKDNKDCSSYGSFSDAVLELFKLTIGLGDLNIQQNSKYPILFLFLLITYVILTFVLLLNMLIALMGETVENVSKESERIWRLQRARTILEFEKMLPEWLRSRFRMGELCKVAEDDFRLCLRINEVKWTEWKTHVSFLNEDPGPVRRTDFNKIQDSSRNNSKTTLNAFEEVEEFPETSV

Row | Compound | IC50 [nM]
1 | CC(C)[C@H](CO)NCc1nc(N2CCc3cccc(F)c3C2)ccc1F [Example 99, (2R)-2-({[3-fluoro-6-(8-fluoro-3,4-dihydroisoquinolin-2(1H)-yl)pyridin-2-yl]methyl}amino)-3-methylbutan-1-ol] | 140
2 | CC(C)[C@H](CO)NCc1nc(-c2ccc(Cl)cc2)ccc1F [Example 42, (2R)-2-({[6-(4-chlorophenyl)-3-fluoropyridin-2-yl]methyl}amino)-3-methylbutan-1-ol] | 390
3 | CCC1CCC(c2ccc(F)c(CN[C@@H](CO)C(C)C)n2)CC1 (stereo partly drawn) [Example 201, (2R)-2-({[6-(4-ethylcyclohexyl)-3-fluoropyridin-2-yl]methyl}amino)-3-methylbutan-1-ol] | 770
4 | Cc1nc(-c2ccccc2)sc1-c1ccc(F)c(CN[C@@H](CO)C(C)C)n1 [Example 287, (2R)-2-({[3-fluoro-6-(4-methyl-2-phenyl-1,3-thiazol-5-yl)pyridin-2-yl]methyl}amino)-3-methylbutan-1-ol] | 730
5 | CC(C)[C@H](CO)NCc1nc(-c2cccc(N(C)C)c2)ccc1F [Example 43, (2R)-2-[({6-[3-(dimethylamino)phenyl]-3-fluoropyridin-2-yl}methyl)amino]-3-methylbutan-1-ol] | 460
6 | CC(C)[C@H](CO)NCc1nc(C2CCCOC2)ccc1F (stereo partly drawn) [Example 218, (2R)-2-({[3-fluoro-6-(tetrahydro-2H-pyran-3-yl)pyridin-2-yl]methyl}amino)-3-methylbutan-1-ol] | > 20000
7 | CC(C)Oc1ccc(-c2ccc(F)c(CN[C@@H](CO)C(C)C)n2)cc1F [Example 25, (2R)-2-[({3-fluoro-6-[3-fluoro-4-(propan-2-yloxy)phenyl]pyridin-2-yl}methyl)amino]-3-methylbutan-1-ol] | 650
8 | OC[C@@H](NCc1ccnc(-c2ccc(C(F)(F)F)cc2)n1)[C@H](O)c1ccccc1 [Example 154, (1R,2R)-1-phenyl-2-[({2-[4-(trifluoromethyl)phenyl]pyrimidin-4-yl}methyl)amino]propane-1,3-diol] | > 20000
9 | OC[C@H](NCc1nc(-c2ccc(C(F)(F)F)nc2)ccc1F)C1CCCCC1 [Example 88, (2R)-2-cyclohexyl-2-({[5-fluoro-6′-(trifluoromethyl)-2,3′-bipyridin-6-yl]methyl}amino)ethanol] | 570
10 | CCC(C)C(CO)NCc1ccnc(-c2ccc(C(F)(F)F)cc2)n1 (stereo not shown) [Example 143, 3-methyl-2-[({2-[4-(trifluoromethyl)phenyl]pyrimidin-4-yl}methyl)amino]pentan-1-ol] | 12400
11 | {1-[({2-[5-(trifluoromethyl)pyridin-2-yl]pyrimidin-4-yl}methyl)amino]cyclohexyl}methanol [Example 193] | > 20000
12 | CC(C)[C@H](CO)NCc1nc(-c2cncc(Cl)c2)ccc1F [Example 278, (2R)-2-{[(5′-chloro-5-fluoro-2,3′-bipyridin-6-yl)methyl]amino}-3-methylbutan-1-ol] | 2690
13 | CC(C)[C@H](CO)NCc1cccc(N2CCCC2)n1 [Example 10, (2R)-3-methyl-2-({[6-(pyrrolidin-1-yl)pyridin-2-yl]methyl}amino)butan-1-ol] | 3790
14 | C[C@@H](O)[C@@H](CO)NCc1ccnc(-c2ccc(C(F)(F)F)cn2)n1 [Example 198, (2R,3R)-2-[({2-[5-(trifluoromethyl)pyridin-2-yl]pyrimidin-4-yl}methyl)amino]butane-1,3-diol] | > 20000
15 | O[C@@H]1CCCC[C@@H]1NCc1nc(-c2ccc(C(F)(F)F)nc2)ccc1F [Example 123, (1R,2S)-2-({[5-fluoro-6′-(trifluoromethyl)-2,3′-bipyridin-6-yl]methyl}amino)cyclohexanol] | 8550
16 | OCC1(NCc2nc(-c3ccc(C(F)(F)F)cc3)ccc2F)CCC1 [Example 79, {1-[({3-fluoro-6-[4-(trifluoromethyl)phenyl]pyridin-2-yl}methyl)amino]cyclobutyl}methanol] | 700
17 | CC(C)[C@H](CO)NCc1cccc(C#Cc2ccc(F)c(F)c2)n1 [Example 265, (2R)-2-[({6-[(3,4-difluorophenyl)ethynyl]pyridin-2-yl}methyl)amino]-3-methylbutan-1-ol] | 190
18 | CC(C)[C@H](CO)NCc1nc(N2Cc3ccccc3C2)ccc1F [Example 71, (2R)-2-({[6-[1,3-dihydro-2H-isoindol-2-yl)-3-fluoropyridin-2-yl]methyl}amino)-3-methylbutan-1-ol] | 160
19 | CC(C)[C@H](CO)NCc1nc(-c2ccc(C(F)(F)F)cc2)ncc1F [Example 131, (2R)-2-[({5-fluoro-2-[4-(trifluoromethyl)phenyl]pyrimidin-4-yl}methyl)amino]-3-methylbutan-1-ol] | 460
20 | CC[C@H](CO)NCc1ccnc(-c2ccc(C(F)(F)F)cc2)n1 [Example 138, (2R)-2-[({2-[4-(trifluoromethyl)phenyl]pyrimidin-4-yl}methyl)amino]butan-1-ol] | 3050

Row | Compound | IC50 [nM]
21 | CC(C)[C@H](CO)NCc1nc(-c2ccc3occc3c2)ccc1F [Example 256, (2R)-2-({[6-(1-benzofuran-5-yl)-3-fluoropyridin-2-yl]methyl}amino)-3-methylbutan-1-ol] | 420
22 | CC(C)[C@@H](NCc1nc(-c2ccc(C(F)(F)F)nc2)ccc1F)C(C)O (stereo partly drawn) [Example 108, (3R)-3-({[5-fluoro-6′-(trifluoromethyl)-2,3′-bipyridin-6-yl]methyl}amino)-4-methylpentan-2-ol] | 540
23 | CC(C)[C@H](CO)NCc1nc(-c2cccc(S(=O)(=O)N3CCCC3)c2)ccc1F [Example 60, (2R)-2-[({3-fluoro-6-[3-(pyrrolidin-1-ylsulfonyl)phenyl]pyridin-2-yl}methyl)amino]-3-methylbutan-1-ol] | 1080
24 | CC(C)Oc1ccc(-c2ccc(F)c(CN[C@@H](CO)C(C)C)n2)cn1 [Example 57, (2R)-2-({[5-fluoro-6′-(propan-2-yloxy)-2,3′-bipyridin-6-yl]methyl}amino)-3-methylbutan-1-ol] | 500
25 | OCC1(CNCc2ccnc(-c3ccc(C(F)(F)F)cc3)n2)CCCCC1 [Example 159, (1-{[({2-[4-(trifluoromethyl)phenyl]pyrimidin-4-yl}methyl)amino]methyl}cyclohexyl)methanol] | 17600
26 | C[C@H](O)[C@H](CO)NCc1ccnc(-c2ccc(C(F)(F)F)cc2)n1 [Example 149, (2S,3S)-2-[({2-[4-(trifluoromethyl)phenyl]pyrimidin-4-yl}methyl)amino]butane-1,3-diol] | > 20000
27 | O[C@@H]1CCC[C@@H]1NCc1ccnc(-c2ccc(C(F)(F)F)cc2)n1 [Example 173, (1R,2S)-2-[({2-[4-(trifluoromethyl)phenyl]pyrimidin-4-yl}methyl)amino]cyclopentanol] | > 20000
28 | CC(C)(C)[C@H](CO)NCc1ccnc(-c2ccc(C(F)(F)F)cc2)n1 [Example 147, (2R)-3,3-dimethyl-2-[({2-[4-(trifluoromethyl)phenyl]pyrimidin-4-yl}methyl)amino]butan-1-ol] | 6430
29 | CC(C)[C@H](CO)NCc1nc(-c2ccnc(N3CCOCC3)c2)ccc1F [Example 55, (2R)-2-({[5-fluoro-2′-(morpholin-4-yl)-2,4′-bipyridin-6-yl]methyl}amino)-3-methylbutan-1-ol] | 2160
30 | CC(C)[C@H](CO)NCc1nc(C#CCCC2CCCCC2)ccc1F [Example 288, (2R)-2-({[6-(4-cyclohexylbut-1-yn-1-yl)-3-fluoropyridin-2-yl]methyl}amino)-3-methylbutan-1-ol] | 170
31 | CC(C)[C@H](NCc1nc(-c2ccc(C(F)(F)F)nc2)ccc1F)C(N)=O [Example 119, (S)-2-((5-fluoro-6′-(trifluoromethyl)-2,3′-bipyridin-6-yl)methylamino)-3-methylbutanamide] | > 20000
32 | CC(C)Oc1cccc(-c2ccc(F)c(CN[C@@H](CO)C(C)C)n2)c1 [Example 24, (2R)-2-[({3-fluoro-6-[3-(propan-2-yloxy)phenyl]pyridin-2-yl}methyl)amino]-3-methylbutan-1-ol] | 750
33 | CC(C)[C@H](CO)NCc1ccnc(-c2ccc(C(F)(F)F)nc2)n1 [Example 184, (2R)-3-methyl-2-[({2-[6-(trifluoromethyl)pyridin-3-yl]pyrimidin-4-yl}methyl)amino]butan-1-ol] | 2940
34 | CC(C)[C@H](CO)NCc1nc(C2=CCCCC2)ccc1F [Example 126, (2R)-2-({[6-(cyclohex-1-en-1-yl)-3-fluoropyridin-2-yl]methyl}amino)-3-methylbutan-1-ol] | 740
35 | Cc1ccc(S(=O)(=O)C(F)(F)F)cc1-c1ccc(F)c(CN[C@@H](CO)C(C)C)n1 [Example 59, (2R)-2-{[(3-fluoro-6-{2-methyl-5-[(trifluoromethyl)sulfonyl]phenyl}pyridin-2-yl)methyl]amino}-3-methylbutan-1-ol] | 630
36 | O=S(=O)(c1ccc(-c2nccc(CNC3(CO)CCCCC3)n2)cc1)C(F)(F)F [Example 208, (1-{[(2-{4-[(trifluoromethyl)sulfonyl]phenyl}pyrimidin-4-yl)methyl]amino}cyclohexyl)methanol] | 13500
37 | COc1cc(-c2ccc(F)c(CN[C@@H](CO)C(C)C)n2)cc(F)c1F [Example 283, (2R)-2-({[6-(3,4-difluoro-5-methoxyphenyl)-3-fluoropyridin-2-yl]methyl}amino)-3-methylbutan-1-ol] | 260
38 | CC(C)[C@H](CO)NCc1nc(N2CCc3ccc(F)cc3C2)ccc1F [Example 98, (2R)-2-({[3-fluoro-6-(7-fluoro-3,4-dihydroisoquinolin-2(1H)-yl)pyridin-2-yl]methyl}amino)-3-methylbutan-1-ol] | 320
39 | CC(C)[C@H](CO)NCc1nc(-c2cc(C(F)(F)F)ccc2F)ccc1F [Example 282, (2R)-2-[({3-fluoro-6-[2-fluoro-5-(trifluoromethyl)phenyl]pyridin-2-yl}methyl)amino]-3-methylbutan-1-ol] | 370
40 | CC(C)[C@H](CO)NCc1nc(-c2ccc3sccc3c2)ccc1F [Example 255, (2R)-2-({[6-(1-benzothiophen-5-yl)-3-fluoropyridin-2-yl]methyl}amino)-3-methylbutan-1-ol] | 230
